One data set in a line: PAMPA (pH 7.4). In kind it is in vitro ADME. To be noted: PAMPA; pH = 7.4 (Table 14).
For data set [1], the system named is phospho-ERK in A549 (KRAS G12S) cells. Description: Cell-based pERK (pERK:tERK) in A549 cells. As to conditions: for activity at 0.01 µM: Homo sapiens, A549, 2 h, read-out: A549-pERK (10 nM, 2 h); for A549-pERK (10 nM, 2 h): phospho- to total protein ratio normalized to DMSO control (Table 9). Summed up:
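A549 cells in 6-well plates were treated with compound at a predetermined concentration for 2 hours at 37 °C. Lysates were then normalised by Bradford protein assay to 1 mg/mL for pERK. Phospho-ERK and total ERK were detected by Western blot with IRDye secondary antibodies and quantified by LI-COR Odyssey imaging.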

The next data set addresses CYP2C9 (Homo sapiens, UniProt P11712). Description: CYP450 panel inhibition in human liver microsomes, 2C9 (diclofenac). An excerpt:
The quenched samples were stored refrigerated.

For data set [2], the system named is phospho-MEK in A549 cells. Description: Cell-based pMEK (pMEK:tMEK, CRAF bypass) in A549 cells. As to conditions: 2 h; for A549-pMEK 100 nM, 2 h: normalized to DMSO control (Table 13). The method, then: Materials and Methods: A549 or A375 cells were seeded in 6-well plates at an appropriate seeding density on day 0. On day 2 or 3, after checking the health and confluency of cells, the media was aspirated and replaced with 1 mL media containing a predetermined concentration of compound and incubated for 2 hours. After 2 hours, the media was aspirated, and the cells washed 2 times with cold PBS. Cells were lysed on ice, with 50 uL 1×CST lysis buffer +1 mM PMSF for 5 minutes. After 5 minutes, cells were removed using a scraper and transferred to cold 1.5 mL tubes, and centrifuged for 10 min, 4° C., 14,000×g. Supernatant was gently removed and snap frozen in liquid nitrogen. Protein concentration of the lysate was determined using Bradford Reagent (analyzed using SpectraMax M2E) and diluted to 1 mg/mL or pERK or 1.5 mg/mL for pMEK analysis. […] All dilutions were in Milk-free antibody diluent.
(§1) A549 or […] cells were treated in duplicate for two hours with compounds at varying concentrations. After two hours, the cells were lysed, snap frozen, and stored at −80° C. After storage, the lysate was quantified with the Bradford assay. Before the lysates were prepared to run on the Jess, the lysates were diluted to 1 mg/mL for pERK analysis and 1.5 mg/mL pMEK analysis using quantitative Western blotting. ERK and MEK phosphorylation levels were estimated by taking the ratio of phospho-protein to total protein and normalizing to the DMSO control.
as §1

Data set [3] in a line: Mouse pharmacokinetics (oral cassette dosing), plasma. In kind it is in vivo. As to conditions: BALB/c immunocompetent mice, 5 mg/kg p.o. Here is the method: Female mice (BALC/c) received a single dose (3 mice/treatment) of vehicle (10% 1N HCl:90% [20% […]) and at 0.5, 1, 2, 4, 8, 12 and 24-hour post dose humanely euthanized.
Blood was obtained through cardiac puncture into K+EDTA tubes, mixed by inversion and centrifuged to obtain the plasma. Blood will be kept on ice or at approximately 4° C. prior. Centrifugation will take place within 30 minutes of blood collection affording plasma samples. Plasma samples will be frozen as soon as possible after centrifugation and stored at −80° C. until analysis. All samples will be analysed by means of LC-MS/MS. Method development for bioanalysis will be performed by pharmacokinetics Department of Crown Bioscience (Taicang) Inc. using LC-MS/MS analysis (using Waters HSS T3 2.1×50 mm (1.8 um) LC column, and an API-4000 Electrospray MS unit). The results of a kinetic solubility (free base) study are represented in Table 19.

Data set [4] is described as follows: Kinetic solubility (PBS pH 7.4; 4 hr). In kind it is physicochemical. To be noted: free base (Table 19), read-out: Kinetic Solubility. The method, then: The plates were shaken for 4 h at room temperature in an Eppendorf Thermomixer. After incubation, the plates were centrifuged for 20 minutes at 4680 rpm. From the supernatant, 150 μL was transferred to a new 96 well plate and 50 μL DMSO was added to ensure continued dissolution. Samples were measured on LC-UV at injection volumes of 1 and 8 μL. Peak areas were determined and compared to peak areas obtained using calibration curves of the test compounds in DMSO.

Setting [5] is: female, mouse, read-out: AUC0-t.
The mark [6] stands for this setting: PBS buffer, pH 7.4, aqueous buffer, kinetic from dmso stock.

Values after ≈ are worked out from the molar mass of the structure shown. Read-outs that look alike come from different tables or passages of the source. Bounds are passed on as bounds.

Chain of CYP2C9 (P11712 whole entry): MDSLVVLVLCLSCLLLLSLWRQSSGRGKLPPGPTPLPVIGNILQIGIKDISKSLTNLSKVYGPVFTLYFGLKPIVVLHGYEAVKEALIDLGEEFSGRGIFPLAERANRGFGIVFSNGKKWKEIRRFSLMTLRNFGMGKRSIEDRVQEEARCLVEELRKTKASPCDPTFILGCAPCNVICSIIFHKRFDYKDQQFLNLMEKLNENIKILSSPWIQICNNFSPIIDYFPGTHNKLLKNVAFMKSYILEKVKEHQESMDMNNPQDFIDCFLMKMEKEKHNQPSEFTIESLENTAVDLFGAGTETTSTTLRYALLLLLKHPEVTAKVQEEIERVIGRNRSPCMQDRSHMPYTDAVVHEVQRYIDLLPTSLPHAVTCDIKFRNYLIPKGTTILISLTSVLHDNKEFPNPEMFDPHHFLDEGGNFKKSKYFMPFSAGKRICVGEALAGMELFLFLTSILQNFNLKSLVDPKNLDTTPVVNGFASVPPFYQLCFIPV

For the compound `CCS(=O)(=O)Nc1cccc(Cc2c(CN(C)CCF)c3ccc(OC(=O)N(C)C)cc3oc2=O)c1F` [Compound 241], the Papp at 4 h, 50 μM in “PAMPA (pH 7.4)” was determined as 690 nm/s. Moreover, the activity at 0.01 µM in data set [1] was 96.6%.
For `Nc1ccc(S(=O)(=O)Nc2ccnn2-c2ccccc2)cc1` [Sulfaphenazole, reference compound], on CYP2C9 (10 μM, human liver microsomes, percent inhibition), the “2C9* (Diclofenac)” value came out at 101.2. This compound also returned an inhibition at 30 min, 10 µM against CYP2C9 (human, microsomes, pH 7.4) of 95.6%.
Regarding `CN(C)C(=O)Oc1cc2oc(=O)c(Cc3cccc(NS(=O)(=O)CC(F)(F)F)c3F)c(CN3CCNCC3)c2cc1Cl` [Compound 247, 6-chloro-3-(2-fluoro-3-((2,2,2-trifluoroethyl)sulfonamido)benzyl)-2-oxo-4-(piperazin-1-ylmethyl)-2H-chromen-7-yl dimethylcarbamate], the Papp at 4 h, 50 μM in the data set “PAMPA (pH 7.4)” was found to be 70 nm/s. For the same compound, the activity at 0.01 µM in data set [1] turned out to be 105%.
In “PAMPA (pH 7.4)”, `CNS(=O)(=O)Nc1cccc(Cc2c(CN(C)CC(F)F)c3ccc(OC(=O)N(C)C)cc3oc2=O)c1F` [Compound 242] yielded a Papp at 4 h, 50 μM of 720 nm/s. Besides, the activity at 0.01 µM in data set [1] turned out to be 69.7%. The “A549-pMEK 100 nM, 2 h” value in data set [2] worked out at 33.2.
Take `CNS(=O)(=O)Nc1cccc(Cc2c(CN(C)CCF)c3ccc(OC(=O)N(C)C)cc3oc2=O)c1F` [Compound 240]: in the data set “PAMPA (pH 7.4)”, the Papp at 4 h, 50 μM is 620 nm/s. The activity at 0.01 µM in data set [1] stood at 66%. Moreover, the AUC(0-t) in data set [3] (setting [5]) amounted to 0.29 µg·h/mL. Moreover, in data set [3] (female, mouse, read-out: Cmax), the Cmax is 0.865 µg/mL. Moreover, in data set [3] (female, mouse, read-out: Tmax), the Tmax turned out to be 4.98 min. In addition, the kinetic solubility at 4 h in data set [4] (setting [6]) came to 67 µM (≈ 36.1 µg/mL). The “A549-pMEK 100 nM, 2 h” value in data set [2] is listed as 34.2.
Turning to `CNS(=O)(=O)Nc1cccc(Cc2c(CN(C)C)c3cc(Cl)c(OC(=O)N(C)C)cc3oc2=O)c1F` [Compound 24], in data set [1], the “A549-pERK (10 nM, 2 h)” value is on record as 42.4. Also, in data set [3], the “AUC(0-t)” value turned out to be 0.8501 µg·h/mL, the “Cmax” value came out at 0.4227 µg/mL and the “Tmax” value was determined as 60 min. Also, the kinetic solubility at 4 h in data set [4] came out at 57 µM (≈ 30.8 µg/mL). The “A549-CRAF BP 100 nM, 2 h” value in data set [2] (pMEK to total MEK normalized to DMSO control) is 55.9 (mean, n = 2).
In turn, `CCS(=O)(=O)Nc1cccc(Cc2c(CN(C)C)c3ccc(OC(=O)N(C)C)cc3oc2=O)c1Cl` [Compound 249, 3-(2-chloro-3-(ethylsulfonamido)benzyl)-4-((dimethylamino)methyl)-2-oxo-2H-chromen-7-yl dimethylcarbamate] registered a Papp at 4 h, 50 μM in “PAMPA (pH 7.4)” of 640 nm/s.
Take `CNS(=O)(=O)Nc1cccc(Cc2c(CN(C)C)c3c(F)cc(OC(=O)N(C)C)cc3oc2=O)c1F` [Compound 244, 4-((dimethylamino)methyl)-5-fluoro-3-(2-fluoro-3-((N-methylsulfamoyl)amino)benzyl)-2-oxo-2H-chromen-7-yl dimethylcarbamate]: in the data set “PAMPA (pH 7.4)”, the Papp at 4 h, 50 μM came to 80 nm/s. The activity at 0.01 µM in data set [1] amounted to 44.7%. In addition, the “A549-pMEK 100 nM, 2 h” value in data set [2] amounted to 26.1.
Turning to `CNS(=O)(=O)Nc1cccc(Cc2c(CN(C)C)c3ccc(OC(=O)N(C)C)cc3oc2=O)c1Br` [Compound 248], the Papp at 4 h, 50 μM in the data set “PAMPA (pH 7.4)” was 600 nm/s. Also, the activity at 0.01 µM in data set [1] worked out at 80.9%. Moreover, the “pERK:tERK (10 nM 2 h A549)” value in data set [1] (Phospho-ERK Screen in A549 (KRAS G12S), head 10 nM 2 h, title 10 μM for 2 hours) is reported as 81. Also, in data set [3] (female, mouse), the AUC(0-inf) came out at 0.0283 µg·h/mL and the half-life was 312 min. Also, the AUC(0-t) in data set [3] (setting [5]) was 0.0195 µg·h/mL. Moreover, the Cmax in data set [3] (female, mouse, read-out: Cmax) was 0.0083 µg/mL. Further, the Tmax in data set [3] (female, mouse, read-out: Tmax) came out at 30 min. Moreover, in data set [4] (setting [6]), the solubility (kinetic) at 4 h was > 80 µM.
`CN(C)Cc1c(Cc2cccc(NS(=O)(=O)CC(F)(F)F)c2F)c(=O)oc2cc(OC(=O)N(C)C)c(F)cc12` [Compound 236]: in “PAMPA (pH 7.4)”, the Papp at 4 h, 50 μM is 520 nm/s. Further, the activity at 0.01 µM in data set [1] came out at 94.1%.
For `CCS(=O)(=O)Nc1cccc(Cc2c(CN(C)CC(F)F)c3ccc(OC(=O)N(C)C)cc3oc2=O)c1F` [Compound 243] the same measures were 480 nm/s and 86.7%.
Compound `CNS(=O)(=O)Nc1cccc(Cc2c(CN(C)C)c3c(C)cc(OC(=O)N(C)C)cc3oc2=O)c1F` [Compound 253, 4-((dimethylamino)methyl)-3-(2-fluoro-3-((N-methylsulfamoyl)amino)benzyl)-5-methyl-2-oxo-2H-chromen-7-yl dimethylcarbamate] displayed a Papp at 4 h, 50 μM in the data set “PAMPA (pH 7.4)” of 480 nm/s.
Still for that read-out and setting: the figure for `CNS(=O)(=O)Nc1cccc(Cc2c(CN(C)C)c3c(OC)cc(OC(=O)N(C)C)cc3oc2=O)c1F` [Compound 252, 4-((dimethylamino)methyl)-3-(2-fluoro-3-((N-methylsulfamoyl)amino)benzyl)-5-methoxy-2-oxo-2H-chromen-7-yl dimethylcarbamate] is 150 nm/s.
With `CN(C)C(=O)Oc1cc2oc(=O)c(Cc3cccc(NS(=O)(=O)CC(F)(F)F)c3F)c(CN3CCNCC3)c2cc1F` [Compound 239], the Papp at 4 h, 50 μM in the data set “PAMPA (pH 7.4)” stood at 8 nm/s. Moreover, the activity at 0.01 µM in data set [1] came to 96.1%.
`CCS(=O)(=O)Nc1cccc(Cc2c(CN3CCNCC3)c3ccc(OC(=O)N(C)C)cc3oc2=O)c1Cl` [Compound 258, 3-(2-chloro-3-(ethylsulfonamido)benzyl)-2-oxo-4-(piperazin-1-ylmethyl)-2H-chromen-7-yl dimethylcarbamate] showed a Papp at 4 h, 50 μM in the data set “PAMPA (pH 7.4)” of 10 nm/s.
For the compound `CCN(C)Cc1c(Cc2cccc(NS(=O)(=O)CC(F)(F)F)c2F)c(=O)oc2cc(OC(=O)N(C)C)c(F)cc12` [Compound 237], in the data set “PAMPA (pH 7.4)”, the Papp at 4 h, 50 μM came out at 500 nm/s. The activity at 0.01 µM in data set [1] turned out to be 114%.
As to `CCN(C)Cc1c(Cc2cccc(NS(=O)(=O)CC)c2F)c(=O)oc2cc(OC(=O)N(C)C)c(Cl)cc12` [Compound 166], in data set [1], the “A549-pERK (10 nM, 2 h)” value is reported as 60.9. For the same compound, in data set [3], the “AUC(0-t)” value amounted to 0.0118 µg·h/mL, the “Cmax” value is 0.0091 µg/mL and the “Tmax” value stood at 120 min. Also, the solubility (kinetic) at 4 h in data set [4] turned out to be 80 µM (≈ 44.3 µg/mL).

(Values after patent US20250179057A1, “MEK IMMUNE ONCOLOGY INHIBITORS AND THERAPEUTIC USES THEREOF” (Immuneering Corporation, priority 2022, published 2025).)
